pIC50: −log10 of the molar value. Structures can show the parent of a compound that is named as a salt.

In one assay the test system is lymphocytes in the peripheral blood. Description: Activity to elevate the number of lymphocytes in the peripheral blood in a rat. It counts as in vivo, male Wistar rat. The following applies: oral, 3 mg/kg, 1 hour later, criterion 195% or more of vehicle group. As for the experimental part:
Activity to Elevate the Number of Lymphocytes in the Peripheral Blood in a Rat
The activity of the compounds of the present invention to elevate the number of lymphocytes in the rat was examined.
A dosing solution was prepared by dissolving the compounds of the present invention to dimethylsulfoxide, adding the mixed solution of polyethylene glycol 400: propylene glycol=1:1 and turning it upside and down repeatedly. The final concentration of DMSO was adjusted to become 2.5%.
The dosing solution of a test substance (3 mg/kg, 10 mg/kg or 30 mg/kg) was orally administered to a male Wistar rat (6 to 8 weeks age) in an amount of 4 mL/kg. After the settled time points after the administration, the blood was drawn from its abdominal large vein under anesthesia and stirred in a EDTA-2K coated container for blood collection. Then, the number of lymphocytes in the peripheral blood was determined by an automated comprehensive hematology analyzer (SF-3000, Sysmex). The test was executed in n=5, and the ratio (%) of the number of lymphocytes in the peripheral blood in a test-substance-administered group to that in a vehicle-treated group (a control group) was calculated while the average value of the number of lymphocytes in the peripheral blood in a control group was determined to be 100%.
As for `COC(=O)[C@H](Cc1ccc(-n2c(=O)c3cncnc3n(C)c2=O)cc1)NC(=O)c1c(Cl)cccc1Cl` [Example 129, N-(2,6-dichlorobenzoyl)-4-(1-methyl-2,4-dioxo-1,2,3,4-tetrahydropyrimido[4,5-d]pyrimidine-3(2H)-yl)-L-phenylalanine methylester], the “Elevation of lymphocytes in the peripheral blood, pass/failure” value (“Elevation of lymphocytes … pass/failure” for short) is given as “◯ (pass (criterion measure or more))”.

Staying with this assay, now noted: oral, 10 mg/kg, 6 hours later, criterion 150% or more of vehicle group.
In the case of `CCNCc1ccc2c(=O)n(-c3ccc(C[C@H](NC(=O)c4c(Cl)cccc4Cl)C(=O)OC(C)C)cc3)c(=O)n(C)c2c1` [Example 156, N-(2,6-dichlorobenzoyl)-4-[7-ethylaminomethyl-1-methyl-2,4-quinazoline-dione-3-yl]-L-phenylalanine isopropylester], the “Elevation of lymphocytes … pass/failure” value was “◯ (pass (criterion measure or more))”.

As for `CCCNCc1ccc2c(=O)n(-c3ccc(C[C@H](NC(=O)c4c(Cl)cccc4Cl)C(=O)OC(C)C)cc3)c(=O)n(C)c2c1` [Example 159, N-(2,6-dichlorobenzoyl)-4-[1-methyl-7-propylaminomethyl-2,4-quinazoline-dione-3-yl]-L-phenylalanine isopropylester], the “Elevation of lymphocytes … pass/failure” value is recorded as “◯ (pass (criterion measure or more))”.

Take `CNCc1ccc2c(=O)n(-c3ccc(C[C@H](NC(=O)c4c(Cl)cccc4Cl)C(=O)OC4CCCC4)cc3)c(=O)n(C)c2c1` [Example 157, N-(2,6-dichlorobenzoyl)-4-[7-methylaminomethyl-1-methyl-2,4-quinazoline-dione-3-yl]-L-phenylalanine cyclopentylester]: the “Elevation of lymphocytes … pass/failure” value is reported as “◯ (pass (criterion measure or more))”.

For `CNCc1ccc2c(=O)n(-c3ccc(C[C@H](NC(=O)c4c(Cl)cccc4Cl)C(=O)OCC(C)C)cc3)c(=O)n(C)c2c1` [Example 158, N-(2,6-dichlorobenzoyl)-4-[7-methylaminomethyl-1-methyl-2,4-quinazoline-dione-3-yl]-L-phenylalanine isobutylester], the “Elevation of lymphocytes … pass/failure” value is “◯ (pass (criterion measure or more))”.

The same assay, now with this note: oral, 30 mg/kg, 12 hours later, criterion 150% or more of vehicle group.
For the molecule `CC(C)OC(=O)[C@H](Cc1ccc(-n2c(=O)c3cc(OCCN(C)C)ccc3n(C)c2=O)cc1)NC(=O)c1c(Cl)cccc1Cl` [Example 155, N-(2,6-dichlorobenzoyl)-4-[6-(2-dimethylaminoethoxy)-1-methyl-2,4-quinazoline-dione-3-yl]-L-phenylalanine isopropylester], the “Elevation of lymphocytes … pass/failure” value is “◯ (pass (criterion measure or more))”.

As for `CNCc1ccc2c(c1)c(=O)n(-c1ccc(C[C@H](NC(=O)c3c(C)cccc3Cl)C(=O)OC(C)C)cc1)c(=O)n2C` [Example 187, Isopropyl (2S)-2-[(2-chloro-6-methylbenzoyl)amino]-3-[4-(1-methyl-6-[(methylamino)methyl]-2,4-dioxo-1,2,3,4-tetrahydro-3(2H)-quinazolinyl)phenyl]propanoate], the “Elevation of lymphocytes … pass/failure” value is given as “◯ (pass (criterion measure or more))”.

As to `CNCCc1cc2c(=O)n(-c3ccc(C[C@H](NC(=O)c4c(Cl)cccc4Cl)C(=O)OC(C)C)cc3)c(=O)n(C)c2cc1F` [Example 228, N-(2,6-dichlorobenzoyl)-4-{7-fluoro-1-methyl-6-[2-(methylamino)ethyl]-2,4-dioxo-1,2,3,4-tetrahydroquinazoline-3(2H)-yl}-L-phenylalanine isopropylester], the “Elevation of lymphocytes … pass/failure” value is reported as “◯ (pass (criterion measure or more))”.

As for `CC(C)OC(=O)[C@H](Cc1ccc(-n2c(=O)c3cc(CN)ccc3n(C)c2=O)cc1)NC(=O)c1c(Cl)cccc1Cl` [Example 174, Isopropyl (2S)-3-[4-(6-(aminomethyl)-1-methyl-2,4-dioxo-1,2,3,4-tetrahydro-3(2H)-quinazolinyl)phenyl]-2-[(2,6-dichlorobenzoyl)amino]propanoate], the “Elevation of lymphocytes … pass/failure” value is reported as “◯ (pass (criterion measure or more))”.

As for `CNCc1cc2c(=O)n(-c3ccc(C[C@H](NC(=O)c4c(Cl)cccc4Cl)C(=O)OC(C)C)cc3)c(=O)n(C)c2cc1F` [Example 184, Isopropyl (2S)-2-[(2,6-dichlorobenzoyl)amino]-3-[4-(7-fluoro-1-methyl-6-[(methylamino)methyl]-2,4-dioxo-1,2,3,4-tetrahydro-3(2H)-quinazolinyl)phenyl]propanoate], the “Elevation of lymphocytes … pass/failure” value is on record as “◯ (pass (criterion measure or more))”.

Consider `CC(C)OC(=O)[C@H](Cc1ccc(-n2c(=O)c3cc(CO)ccc3n(C)c2=O)cc1)NC(=O)c1c(Cl)cccc1Cl` [Example 234, N-(2,6-dichlorobenzoyl)-4-[6-(hydroxymethyl)-1-methyl-2,4-dioxo-1,2,3,4-tetrahydroquinazoline-3-(2H)-yl]-L-phenylalanine isopropylester], for which the “Elevation of lymphocytes … pass/failure” value was “◯ (pass (criterion measure or more))”.

For another assay, the target named is T1, VCAM-1/α4β1 integrin binding (Homo sapiens, UniProt P05556+P13612).
T1 construct: Jurkat (ATCC TIB-152), known to express integrin α4β1; endogenous in cells; host or cells: Jurkat (ATCC TIB-152)
T1 sequence (P13612 34-1032): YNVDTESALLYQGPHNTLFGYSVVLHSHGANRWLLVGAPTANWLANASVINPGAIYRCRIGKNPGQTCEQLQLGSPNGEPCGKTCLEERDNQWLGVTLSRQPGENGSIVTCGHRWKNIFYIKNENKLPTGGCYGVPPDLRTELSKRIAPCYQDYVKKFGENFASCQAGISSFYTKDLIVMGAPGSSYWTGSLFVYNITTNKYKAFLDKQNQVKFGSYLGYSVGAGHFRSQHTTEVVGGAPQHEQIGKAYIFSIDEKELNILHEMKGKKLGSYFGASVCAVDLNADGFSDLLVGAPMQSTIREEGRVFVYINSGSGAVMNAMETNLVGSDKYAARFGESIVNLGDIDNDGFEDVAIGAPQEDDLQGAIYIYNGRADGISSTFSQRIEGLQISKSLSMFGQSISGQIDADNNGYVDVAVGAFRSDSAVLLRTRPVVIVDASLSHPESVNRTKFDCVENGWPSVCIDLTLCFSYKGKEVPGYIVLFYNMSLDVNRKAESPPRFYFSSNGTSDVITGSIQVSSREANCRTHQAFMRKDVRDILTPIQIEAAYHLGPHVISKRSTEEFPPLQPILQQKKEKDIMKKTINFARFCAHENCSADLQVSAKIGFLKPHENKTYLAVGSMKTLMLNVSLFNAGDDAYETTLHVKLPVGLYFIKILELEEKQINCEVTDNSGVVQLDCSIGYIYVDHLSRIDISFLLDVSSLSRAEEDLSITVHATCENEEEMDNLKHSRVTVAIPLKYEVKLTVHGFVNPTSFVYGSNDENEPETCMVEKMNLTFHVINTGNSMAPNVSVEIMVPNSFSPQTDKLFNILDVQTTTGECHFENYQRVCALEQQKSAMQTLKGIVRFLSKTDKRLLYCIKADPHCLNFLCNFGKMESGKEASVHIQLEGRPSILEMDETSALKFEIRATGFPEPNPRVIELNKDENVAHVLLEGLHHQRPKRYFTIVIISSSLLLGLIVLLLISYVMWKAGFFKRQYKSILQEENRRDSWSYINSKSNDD
T1 sequence (P05556 21-798): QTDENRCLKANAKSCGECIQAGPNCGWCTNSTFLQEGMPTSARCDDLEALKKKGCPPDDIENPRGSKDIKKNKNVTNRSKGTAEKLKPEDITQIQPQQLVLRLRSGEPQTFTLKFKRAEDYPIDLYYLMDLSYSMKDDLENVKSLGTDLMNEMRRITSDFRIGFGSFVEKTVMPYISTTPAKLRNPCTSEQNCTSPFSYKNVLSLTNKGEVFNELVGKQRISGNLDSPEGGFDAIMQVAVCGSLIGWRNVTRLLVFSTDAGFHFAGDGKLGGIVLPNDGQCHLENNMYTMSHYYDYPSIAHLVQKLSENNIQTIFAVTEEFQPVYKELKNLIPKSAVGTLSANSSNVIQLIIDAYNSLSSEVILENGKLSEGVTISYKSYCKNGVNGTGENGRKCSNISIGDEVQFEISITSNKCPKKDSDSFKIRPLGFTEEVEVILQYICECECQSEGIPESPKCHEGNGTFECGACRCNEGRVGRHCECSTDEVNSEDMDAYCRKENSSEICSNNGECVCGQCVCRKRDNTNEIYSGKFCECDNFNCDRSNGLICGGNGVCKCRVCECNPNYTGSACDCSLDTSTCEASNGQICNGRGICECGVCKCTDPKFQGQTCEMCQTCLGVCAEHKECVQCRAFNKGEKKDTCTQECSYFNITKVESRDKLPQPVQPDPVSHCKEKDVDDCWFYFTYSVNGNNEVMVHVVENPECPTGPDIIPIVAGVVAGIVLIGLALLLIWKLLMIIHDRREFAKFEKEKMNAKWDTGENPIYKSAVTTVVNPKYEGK
Description: Assay of antagonistic activity to VCAM-1/α4β1 integrin binding under the existence of blood serum (Jurkat cell adhesion to VCAM-1/Fc). The following applies: Jurkat cells, recombinant human VCAM-1/Fc, 50% human blood serum. The class given is cell-based. How it is done: Assay of Antagonistic Activity to VCAM-1/α4β1 Integrin Binding Under the Existence of Blood Serum
The capacity of a test substance antagonistic to the binding of cell strain of human T cells, Jurkat (ATCC TIB-152), known to express integrin α4β1, to VCAM-1 was determined.
Fifty μl/well of a solution (500 ng/ml) of recombinant human VCAM-1/Fc (R & D systems) diluted with buffer A (0.1 M NaHCO3, pH 9.6) was added to a 96-well microtiter plate (Nunc Maxisorp). After the incubation at 4° C. overnight and washing once with PBS, a buffer (buffer B) obtained by diluting Block Ace (Snow Brand Milk Products Co., Ltd.) with PBS to ½ concentration was added in an amount of 150 μl/well. After the incubation at room temperature for 2 hours, buffer B was removed and the plate was washed with PBS once.
Jurkat cells were washed with Dulbecco modified Eagle medium (SIGMA, hereinafter referred to as “DMEM”) once. Then, the cells were again suspended in a binding buffer (DMEM containing 20 mM HEPES, 0.1% BSA, 2 mM MnCl2 and 50% human blood serum (Sigma)) to become 1×10^6 cells/mL.
Sixty μl of a test substance of various concentrations obtained by the dilution with the binding buffer was added to a round-bottom, 96-well plate (IWAKI). Immediately thereafter, 60 μl of the Jurkat cells (1×10^6 cells/ml) were added thereto and shaken on a plate shaker (IKA-Labortechnik, IKA-SCHUTTLER MTS-4) at 1000 rpm for 10 seconds. In 120 μL of the cell suspension to which the test substance was added, each 100 μL thereof was transferred on the VCAM-1/Fc-coated plate and incubated in dark place at room temperature for 60 minutes. After the shaking on the plate shaker at 1000 rpm for 30 seconds, the solution was immediately removed. Then, the unbound cells were removed by washing them with PBS once. A buffer C (PBS containing 0.82% Triton X-100) was added to the plate in an amount of 70 μL/well. After the shaking on the plate shaker at 1000 rpm for 5 minutes, the bound Jurkat cells were lysed. After centrifuging the cells on a plate centrifuge (SIGMA 4-15C) at room temperature at 2500 rpm for 5 minutes, 50 μL of supernatant thereof was transferred to a 96-well microtiter plate (Nunc Maxisorp). Each 50 μL of Substrate Buffer (Promega, CytoTox 96 Non-Radioactive Cytotoxicity Assay) was added thereto, shaken on a plate shaker at 1000 rpm for 10 seconds and reacted in dark place at room temperature for 30 minutes. Then, each 50 μL of Stop Solution (Promega, CytoTox 96 Non-Radioactive Cytotoxicity Assay) was added thereto and shaken on a plate shaker at 1000 rpm for 10 seconds. […] The absorbance thus obtained detects an activity of lactate dehydrogenase (LDH) dissolved in the supernatant of each well. Namely, the absorbance is proportional to the number of remaining Jurkat cells on the plate via the binding to VCAM-1. The test was conducted in duplicate and the binding rate of each test substance in various concentrations was determined while the absorbance of the test substance-free well was determined to be 100% and the absorbance of the Jurkat-cell-free well was determined to be 0%. The concentration for the 50% inhibition of binding, IC50, was calculated.
For `CCNCc1ccc2c(=O)n(-c3ccc(C[C@H](NC(=O)c4c(Cl)cccc4Cl)C(=O)O)cc3)c(=O)n(C)c2c1` [Example 143, N-(2,6-dichlorobenzoyl)-4-[7-ethylaminomethyl-1-methyl-2,4-quinazoline-dione-3-yl]-L-phenylalanine], the pIC50 (usually the negative decadic logarithm of the IC50, by convention in mol/L) was 8.15.

With `CCCNCCCc1ccc2c(c1)c(=O)n(-c1ccc(C[C@H](NC(=O)c3c(Cl)cccc3Cl)C(=O)O)cc1)c(=O)n2C` [Example 209], the pIC50 is 7.82.

Regarding `COCCNc1ccc2c(c1)c(=O)n(-c1ccc(C[C@H](NC(=O)c3c(Cl)cccc3Cl)C(=O)O)cc1)c(=O)n2C` [Example 10], the negative logarithm of the IC50 (pIC50) was 7.81.

Take `CC(C)CCNCc1ccc2c(c1)c(=O)n(-c1ccc(C[C@H](NC(=O)c3c(Cl)cccc3Cl)C(=O)O)cc1)c(=O)n2C` [Example 196]: the negative-log IC50 (pIC50) was 8.28.

With `Cn1c(=O)n(-c2ccc(C[C@H](NC(=O)c3c(Cl)cccc3Cl)C(=O)O)cc2)c(=O)c2cc(CNCC3CC3)ccc21` [Example 197], the pIC50 is 8.20.

As to `CN1CCN(C)c2cc3c(cc21)c(=O)n(-c1ccc(C[C@H](NC(=O)c2c(Cl)cccc2Cl)C(=O)O)cc1)c(=O)n3C` [Example 17], the pIC50 was 7.64.

`Cn1c(=O)n(-c2ccc(C[C@H](NC(=O)c3c(Cl)cccc3Cl)C(=O)O)cc2)c(=O)c2cc(CO)ccc21` [Example 60]: the pIC50 was 7.59.

Take `CC(C)N(C)Cc1ccc2c(c1)c(=O)n(-c1ccc(C[C@H](NC(=O)c3c(Cl)cccc3Cl)C(=O)O)cc1)c(=O)n2C` [Example 199]: the pIC50 was 7.74.

As for “N-(2,6-dichlorobenzoyl)-4-[6-((2S)-2-aminopropoxy)-1-methyl-2,4-quinazoline-dione-3-yl]-L-phenylalanine isopropylester [Example 141]”, the negative-log IC50 (pIC50) is 7.91.

Turning to `Cn1c(=O)n(-c2ccc(C[C@H](NC(=O)c3c(Cl)cccc3Cl)C(=O)O)cc2)c(=O)c2ccc(CN3CCCC3)cc21` [Example 35, N-(2,6-dichlorobenzoyl)-4-[1-methyl-7-(pyrrolidine-1-ylmethyl)-2,4-quinazoline-dione-3-yl]-L-phenylalanine trifluoroacetate], the pIC50 is 8.10.

The values above are taken from patent US7345049B2, “Phenylalanine derivatives” (Ajinomoto Co., Inc., priority 2003, dated 2008).
